Source: ChEMBL document CHEMBL3877294, “Discovery of Ruzasvir (MK-8408): A Potent, Pan-Genotype HCV NS5A Inhibitor with Optimized Activity against Common Resistance-Associated Polymorphisms” (J Med Chem, 2017)

What was measured:
Format in all cases: cell-based
Huh-7 [1] = test: Inhibition of HCV genotype-1a NS5A infected in human HuH7 cells by luciferase reporter gene assay; settings: Hepatitis C virus subtype 1a
[2] = test system: Nonstructural protein 5A (Hepatitis C virus), Q5L478 [UNDEFINED MUTATION]; test: Inhibition of HCV genotype-1a NS5A L31V mutant infected in human HuH7 cells by luciferase reporter gene assay; settings: Hepatitis C virus subtype 1a; Huh-7
[3] = test system: T1, Nonstructural protein 5A (Hepatitis C virus), Q5L478 [Y93H]; test: Inhibition of HCV genotype-1a NS5A Y93H mutant infected in human HuH7 cells by luciferase reporter gene assay; settings: Hepatitis C virus subtype 1a; Huh-7
T1 sequence (whole entry): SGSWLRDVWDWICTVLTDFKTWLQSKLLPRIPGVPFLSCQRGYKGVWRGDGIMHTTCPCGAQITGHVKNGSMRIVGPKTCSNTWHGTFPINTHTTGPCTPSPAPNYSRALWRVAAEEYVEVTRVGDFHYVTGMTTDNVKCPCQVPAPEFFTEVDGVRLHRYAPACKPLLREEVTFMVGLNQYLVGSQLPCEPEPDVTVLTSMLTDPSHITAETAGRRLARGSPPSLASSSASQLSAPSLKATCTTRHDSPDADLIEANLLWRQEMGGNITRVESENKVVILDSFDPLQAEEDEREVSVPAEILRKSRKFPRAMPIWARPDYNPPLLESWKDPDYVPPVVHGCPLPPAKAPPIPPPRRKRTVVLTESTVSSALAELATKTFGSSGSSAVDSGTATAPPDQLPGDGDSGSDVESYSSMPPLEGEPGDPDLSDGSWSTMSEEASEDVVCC

Huh-7 [4] = test: Inhibition of HCV genotype-3a NS5A infected in human HuH7 cells by luciferase reporter gene assay; settings: Hepatitis C virus subtype 3a
Huh-7 [5] = test: Inhibition of HCV genotype-2b NS5A harboring methionine at position 31 infected in human HuH7 cells by luciferase reporter gene assay; settings: Hepatitis C virus subtype 2b
Huh-7 [6] = test: Inhibition of HCV genotype-4a NS5A infected in human HuH7 cells by luciferase reporter gene assay; settings: Hepatitis C virus subtype 4a

Row | SMILES | EC90 (Huh-7 [1]) [nM] | EC90 [2] [nM] | EC90 [3] [nM] | EC90 (Huh-7 [4]) [nM] | EC90 (Huh-7 [5]) [nM] | EC90 (Huh-7 [6]) [nM]
1 | COC(=O)N[C@H](C(=O)N1CCC[C@H]1c1ncc(-c2cc(F)c3c(c2)OC(c2cc4c(s2)CCC4)n2c-3cc3cc(-c4cnc([C@@H]5C[C@H]6C[C@H]6N5C(=O)[C@@H](NC(=O)OC)C(C)C)[nH]4)ccc32)[nH]1)C(C)C (stereo partly specified) | 0.006 | 0.015 | 0.2 | 0.012 | 0.67 | 0.005
2 | COC(=O)N[C@H](C(=O)N1CCC[C@H]1c1ncc(-c2cc(F)c3c(c2)OC(c2cnco2)n2c-3cc3cc(-c4cnc([C@@H]5CCCN5C(=O)[C@@H](NC(=O)OC)C(C)C)[nH]4)ccc32)[nH]1)C(C)C (stereo partly specified) | 0.06 |  | 8.5 | 0.25 | 14.1 | 
3 | COC(=O)N[C@H](C(=O)N1CCC[C@H]1c1ncc(-c2cc(F)c3c(c2)OC(c2cc(F)c(C4CC4)s2)n2c-3cc3cc(-c4cnc([C@@H]5CCCN5C(=O)[C@@H](NC(=O)OC)C(C)C)[nH]4)ccc32)[nH]1)C(C)C (stereo partly specified) | 0.005 | 0.029 | 0.17 | 0.012 | 0.68 | 0.014
4 | COC(=O)N[C@H](C(=O)N1CCC[C@H]1c1ncc(-c2cc(F)c3c(c2)OC(c2sc(C4CC4)cc2F)n2c-3cc3cc(-c4cnc([C@@H]5CCCN5C(=O)[C@@H](NC(=O)OC)C(C)C)[nH]4)ccc32)[nH]1)C(C)C (stereo partly specified) | 0.002 |  | 0.74 | 0.008 | 0.68 | 0.003
5 | COC(=O)N[C@H](C(=O)N1CCC[C@H]1c1ncc(-c2cc(F)c3c(c2)OC(c2sc(C(C)C)nc2C)n2c-3cc3cc(-c4cnc([C@@H]5CCCN5C(=O)[C@@H](NC(=O)OC)C(C)C)[nH]4)ccc32)[nH]1)C(C)C (stereo partly specified) | 0.004 | 0.36 | 12.5 | 0.034 | > 1.7 | 0.009
6 | COC(=O)N[C@H](C(=O)N1CCC[C@H]1c1ncc(-c2cc(F)c3c(c2)OC(c2cnns2)n2c-3cc3cc(-c4cnc([C@@H]5CCCN5C(=O)[C@@H](NC(=O)OC)C(C)C)[nH]4)ccc32)[nH]1)C(C)C (stereo partly specified) | 0.003 | 0.14 | 0.36 | 0.047 | 0.72 | 0.012
7 | COC(=O)N[C@H](C(=O)N1CCC[C@H]1c1ncc(-c2cc(F)c3c(c2)OC(c2ccc(CC4CC4)s2)n2c-3cc3cc(-c4cnc([C@@H]5CCCN5C(=O)[C@@H](NC(=O)OC)C(C)C)[nH]4)ccc32)[nH]1)C(C)C (stereo partly specified) | 0.003 | 0.011 | 0.18 | 0.004 |  | 0.003
8 | COC(=O)N[C@H](C(=O)N1CCC[C@H]1c1ncc(-c2cc(F)c3c(c2)OC(c2ccc(CC(F)(F)F)s2)n2c-3cc3cc(-c4cnc([C@@H]5CCCN5C(=O)[C@@H](NC(=O)OC)C(C)C)[nH]4)ccc32)[nH]1)C(C)C (stereo partly specified) | 0.001 | 0.022 | 0.1 | 0.007 | 0.65 | 0.004
9 | COC(=O)N[C@H](C(=O)N1CCC[C@H]1c1ncc(-c2cc(F)c3c(c2)OC(c2ccc(C#N)s2)n2c-3cc3cc(-c4cnc([C@@H]5CCCN5C(=O)[C@@H](NC(=O)OC)C(C)C)[nH]4)ccc32)[nH]1)C(C)C (stereo partly specified) | < 0.002 | 0.087 | 2.38 | 0.013 | 3.4 | 0.004
10 | COC(=O)N[C@H](C(=O)N1CCC[C@H]1c1ncc(-c2cc(F)c3c(c2)OC(c2cnc(CC(F)(F)F)s2)n2c-3cc3cc(-c4cnc([C@@H]5CCCN5C(=O)[C@@H](NC(=O)OC)C(C)C)[nH]4)ccc32)[nH]1)C(C)C (stereo partly specified) | 0.005 | 0.05 | 0.18 | 0.015 | 0.22 | 0.013
11 | COC(=O)N[C@H](C(=O)N1CCC[C@H]1c1ncc(-c2cc(F)c3c(c2)OC(c2nc4ccccc4o2)n2c-3cc3cc(-c4cnc([C@@H]5CCCN5C(=O)[C@@H](NC(=O)OC)C(C)C)[nH]4)ccc32)[nH]1)C(C)C (stereo partly specified) | 0.004 | 0.042 | 0.32 | 0.025 | 1 | 0.008
12 | CCc1nnc(C2Oc3cc(-c4cnc([C@@H]5CCCN5C(=O)[C@@H](NC(=O)OC)C(C)C)[nH]4)cc(F)c3-c3cc4cc(-c5cnc([C@@H]6CCCN6C(=O)[C@@H](NC(=O)OC)C(C)C)[nH]5)ccc4n32)s1 (stereo partly specified) | 0.016 |  | 7.4 | 0.18 | > 1.7 | 
13 | COC(=O)N[C@H](C(=O)N1CCC[C@H]1c1ncc(-c2cc(F)c3c(c2)OC(c2csc(C4CC4)c2)n2c-3cc3cc(-c4cnc([C@@H]5CCCN5C(=O)[C@@H](NC(=O)OC)C(C)C)[nH]4)ccc32)[nH]1)C(C)C (stereo partly specified) | 0.002 | 0.06 | 0.26 | 0.007 | 0.88 | 0.003
14 | COC(=O)N[C@H](C(=O)N1CCC[C@H]1c1ncc(-c2cc(F)c3c(c2)OC(c2cc4c(s2)CCCC4)n2c-3cc3cc(-c4cnc([C@@H]5CCCN5C(=O)[C@@H](NC(=O)OC)C(C)C)[nH]4)ccc32)[nH]1)C(C)C (stereo partly specified) | 0.005 | 0.027 | 0.31 | 0.02 | 0.61 | 0.008
15 | COC(=O)N[C@H](C(=O)N1CCC[C@H]1c1ncc(-c2cc(F)c3c(c2)OC(c2ccc(C(C)C)s2)n2c-3cc3cc(-c4cnc([C@@H]5CCCN5C(=O)[C@@H](NC(=O)OC)C(C)C)[nH]4)ccc32)[nH]1)C(C)C (stereo partly specified) | 0.002 | 0.01 | 0.13 | 0.001 | 0.52 | 0.003
16 | CCc1ncc(C2Oc3cc(-c4cnc([C@@H]5CCCN5C(=O)[C@@H](NC(=O)OC)C(C)C)[nH]4)cc(F)c3-c3cc4cc(-c5cnc([C@@H]6CCCN6C(=O)[C@@H](NC(=O)OC)C(C)C)[nH]5)ccc4n32)s1 (stereo partly specified) | 0.004 | 0.048 | 0.14 | 0.009 | 0.097 | 0.011
17 | COCc1ncc(C2Oc3cc(-c4cnc([C@@H]5CCCN5C(=O)[C@@H](NC(=O)OC)C(C)C)[nH]4)cc(F)c3-c3cc4cc(-c5cnc([C@@H]6CCCN6C(=O)[C@@H](NC(=O)OC)C(C)C)[nH]5)ccc4n32)s1 (stereo partly specified) | 0.002 | 0.017 | 0.04 | 0.007 | 0.12 | 0.003
18 | COC(=O)N[C@H](C(=O)N1CCC[C@H]1c1ncc(-c2cc(F)c3c(c2)OC(c2cnc(C4(C)CC4)s2)n2c-3cc3cc(-c4cnc([C@@H]5CCCN5C(=O)[C@@H](NC(=O)OC)C(C)C)[nH]4)ccc32)[nH]1)C(C)C (stereo partly specified) | 0.017 | 0.065 | 0.38 | 0.046 | 0.68 | 0.027
19 | COC(=O)N[C@H](C(=O)N1CCC[C@H]1c1ncc(-c2cc(F)c3c(c2)OC(c2cc4c(s2)CCC4)n2c-3cc3cc(-c4cnc([C@@H]5CCCN5C(=O)[C@@H](NC(=O)OC)C(C)C)[nH]4)ccc32)[nH]1)C(C)C (stereo partly specified) | 0.003 | 0.003 | 0.26 | 0.007 | 0.24 | 0.005
20 | CCc1ncc(C2Oc3cc(-c4cnc([C@@H]5CCCN5C(=O)[C@@H](NC(=O)OC)C(C)C)[nH]4)cc(F)c3-c3cc4cc(-c5cnc([C@@H]6C[C@H]7C[C@H]7N6C(=O)[C@@H](NC(=O)OC)C(C)C)[nH]5)ccc4n32)s1 (stereo partly specified) | 0.005 | 0.022 | 0.04 | 0.012 | 0.21 | 0.008
21 | COC(=O)N[C@H](C(=O)N1CCC[C@H]1c1ncc(-c2cc(F)c3c(c2)OC(c2ncc(C4CC4)s2)n2c-3cc3cc(-c4cnc([C@@H]5CCCN5C(=O)[C@@H](NC(=O)OC)C(C)C)[nH]4)ccc32)[nH]1)C(C)C (stereo partly specified) | 0.005 | 0.017 | 1 |  | 1.63 | 
22 | COC(=O)N[C@H](C(=O)N1CCC[C@H]1c1ncc(-c2cc(F)c3c(c2)OC(c2nc(C4CC4)cs2)n2c-3cc3cc(-c4cnc([C@@H]5CCCN5C(=O)[C@@H](NC(=O)OC)C(C)C)[nH]4)ccc32)[nH]1)C(C)C (stereo partly specified) | 0.002 |  | 2.6 | 0.073 | 4.6 | 
23 | COC(=O)N[C@H](C(=O)N1CCC[C@H]1c1ncc(-c2ccc3c(c2)cc2n3C(c3cc4ccccc4s3)Oc3cc(-c4cnc([C@@H]5C[C@@H](F)CN5C(=O)[C@@H](NC(=O)OC)C(C)C)[nH]4)ccc3-2)[nH]1)C(C)C (stereo partly specified) | 0.01 | 0.53 | 1.1 | 0.19 | 3.4 | 
24 | COC(=O)N[C@H](C(=O)N1CCC[C@H]1c1ncc(-c2cc(F)c3c(c2)OC(c2cncs2)n2c-3cc3cc(-c4cnc([C@@H]5CCCN5C(=O)[C@@H](NC(=O)OC)C(C)C)[nH]4)ccc32)[nH]1)C(C)C (stereo partly specified) | 0.006 |  | 1 | 0.079 | 2.47 | 
25 | COC(=O)N[C@H](C(=O)N1CCC[C@H]1c1ncc(-c2cc(F)c3c(c2)OC(c2cc(C4CC4)cs2)n2c-3cc3cc(-c4cnc([C@@H]5CCCN5C(=O)[C@@H](NC(=O)OC)C(C)C)[nH]4)ccc32)[nH]1)C(C)C (stereo partly specified) | < 0.002 | 0.028 | 1.74 | 0.008 | 1.6 | 
